Assay results from patent US20110038884A1, “IMMUNOPOTENTIATING AGENT COMPRISING EP1 AGONIST” (NATIONAL UNIVERSITY CO., HAMAMATSU UNIVER. SCHOOL OF …, priority 2008, published 2011).

Tests used:
[1] = system: TRP-2-specific CTLs in cervical lymph nodes; assay: Activation of cytotoxic T lymphocytes in cervical lymph nodes: TRP-2-specific CTL frequency by tetramer flow cytometry after tape stripping; type: in vivo, C57BL/6 (B6) mice; settings: relative to 100 = total mononucleocytes in cervical lymph nodes; one week after application to tape-stripped auricles; TRP-2 10 mg per side, Compound A 20 μL of 100 μM per side
Experimental: The corneal layer of the auricles of C57BL/6 (B6) mice was destroyed by repeatedly carrying out (ten times) a stripping operation using adhesive tape, following which an antigen peptide or EP1 agonist was applied as a test substance. Using a solution obtained by dissolving a melanoma-specific antigen peptide (available from Peptide Business Department, Accord K.K.; abbreviated below as TRP-2) as the antigen peptide in 70% ethanol, 10 mg of the antigen peptide was applied per side of an auricle. […] One week after application of the test substance, the cervical lymph nodes were removed. The TRP-2-specific CTL frequency, relative to an arbitrary value of 100 representing the total number of mononucleocytes in the cervical lymph nodes, was determined by flow cytometric analysis (FACScaliber; Becton, Dickinson and Company) with a tetramer (Medical & Biological Laboratories Co., Ltd.). Four experimental groups were established: (1) a group in which only tape stripping (abbreviated below as TS) was carried out, (2) a group in which TRP-2 was applied after TS, (3) a group in which Compound A was applied after TS, and (4) a group in which TRP-2 and Compound A were applied after TS.

[2] = system: isolated epidermal Langerhans cells; assay: Activation of cytotoxic T lymphocytes in isolated Langerhans cells co-cultured with lymphocytes; type: cell-based, C57BL/6 (B6) mouse; settings: relative to 100 = total mononucleocytes in culture medium; TRP-2 10 μg/mL, Compound A 1 μM; 7 days co-culture
Experimental: An epidermal cell suspension was prepared by trypsinizing an auricle epidermal sheet removed over a given surface area from the corneal layer on one of the auricles in C57BL/6 (B6) mouse. The resulting epidermal cell suspension was subjected to panning using an antibody specific for I-A^b antigen in order to isolate epidermal Langerhans cells. Each test substance (TRP-2 (concentration, 10 μg/mL) and Compound A (1 μM)) was added to the isolated Langerhans cells (cell density, 10^5 cells/mL), following which the cells were cultured in a culture medium (cRPMI1640 medium; Sigma-Aldrich Japan). After a half-day, the cells were then co-cultured for 7 days with spleen cell lymphocytes isolated from the cervical lymph nodes of B6 mice. The frequency of TRP-2-specific CTLs, relative to an arbitrary value of 100 representing the total number of mononucleocytes in the culture medium, was subsequently determined by flow cytometric analysis (FACScaliber; Becton, Dickinson and Company) with a tetramer (Medical & Biological Laboratories Co., Ltd.). The following groups were established as experimental groups: (1) an untreated group, (2) a group in which TRP-2 was added, and (3) a group in which TRP-2 and Compound A were both added.

I-A^b = assay: Expression of cell-surface molecules in cultured Langerhans cells (flow cytometry): I-A^b; type: cell-based, C57BL/6 mice; settings: Compound A 1 μM, Langerhans cells cultured a half-day; control group 12.1
Experimental: (§1) Using the same procedure as in Example 2 above, the Langerhans cells of C57BL/6 (36) mice were isolated, following which Compound A (1 μM) was added as an EP1 agonist and the cells were cultured for a half-day in a culture medium (cRPMI1640 medium; Sigma-Aldrich Japan). The cultured cells were then stained using antibodies specific to the cell-surface molecules I-A^b, B7-1 (CD80), B7-2 (CD86), CD40 and ICAM-1 (CD54), and changes in the expression of these molecules were analyzed by flow cytometry. An experimental group treated in the same way, excluding the addition of Compound A, was established as a control.

B7-1 (CD80) = assay: Expression of cell-surface molecules in cultured Langerhans cells (flow cytometry): B7-1; type: cell-based, C57BL/6 mice; settings: Compound A 1 μM, Langerhans cells cultured a half-day; control group 5.9
Experimental: as §1

B7-2 (CD86) = assay: Expression of cell-surface molecules in cultured Langerhans cells (flow cytometry): B7-2; type: cell-based, C57BL/6 mice; settings: Compound A 1 μM, Langerhans cells cultured a half-day; control group 65.5
Experimental: as §1

CD40 = assay: Expression of cell-surface molecules in cultured Langerhans cells (flow cytometry): CD40; type: cell-based, C57BL/6 mice; settings: Compound A 1 μM, Langerhans cells cultured a half-day; control group 28.7
Experimental: as §1

ICAM-1 (CD54) = assay: Expression of cell-surface molecules in cultured Langerhans cells (flow cytometry): ICAM-1; type: cell-based, C57BL/6 mice; settings: Compound A 1 μM, Langerhans cells cultured a half-day; control group 36.5
Experimental: as §1

B16 melanoma cells = assay: Life-prolonging effects in melanoma-inoculated mice; type: in vivo, B6 mice; settings: 8 animals per group
Experimental: B16 melanoma cells (2×10^5) were transplanted into B6 mice in the same way as in Example 4. On day 5 after transplantation, the respective test substances (TRP-2 (10 μg per side of an auricle), Compound A (20 μL of a 100 μM solution per side of an auricle)) were administered to the right auricles in B6 mice by the same method as in Example 2. The same treatment was carried out ten days later on the left auricle, following which the survival of the mice in each experimental group was examined. The following groups were established as experimental groups (each group being composed of 8 animals): (1) a group in which only TS was carried out, (2) a group in which compound A was applied after TS, and (3) a group in which TRP-2 and Compound A were applied after TS.

NK1.1+ cells = assay: Activation of NK1.1+ cells in cervical lymph nodes; type: in vivo, B6 mice; settings: relative to 100 = total mononucleocytes in cervical lymph nodes; two weeks after application of 20 μL of 100 μM per side after TS; TS-only group 2.7
Experimental: As in Example 1, the corneal layer of the auricles of B6 mice was destroyed by repeatedly stripping ten times using adhesive tape, following which an EP1 agonist (Compound A: 20 μL of a 100 μM solution per side of an auricle) was applied as the test substance. Two weeks after application of the test substance, the cervical lymph nodes were removed. The frequency of NK1.1+ cells, relative to an arbitrary value of 100 representing the total number of mononucleocytes in the cervical lymph nodes, was determined by flow cytometric analysis. The following groups were established as experimental groups: (1) a group in which only TS was carried out, and (2) a group in which Compound A was applied after TS.

splenic lymphocytes = assay: Splenic lymphocyte proliferative ability test (WST-1); type: in vivo, B6 mice; settings: cell proliferation ratio; splenic lymphocytes recovered one week after application after TS, cultured 3 days with IL-2 (10 U/mL); TS-only group 4.2
Experimental: As in Example 6, TS was carried out, after which Compound A (20 μL of a 100 μM solution per side of an auricle) was applied as the substance. One week after application of the test substance, splenic lymphocytes were recovered, then cultured at 37° C. for 3 days in a culture medium (cRPMI1640 medium: Sigma-Aldrich Japan) containing IL-2 (10 U/mL). Cell proliferative ability tests were carried out using WST-1 (Takara Bio Inc.) as the cell proliferation reagent (absorbance at 450 nm). Experimental groups similar to those in Example 6 were established (with each group containing three animals).
The relative values of the absorption intensities in each experimental group, based on an arbitrary value of 1 for the absorbance at 450 nm when all of the WST-1 added had decomposed to formazan, indicate the percent uptake of WST-1; that is, the cell proliferation ratio.

[3] = system: EL4 cells not subjected to NP pulsing; assay: NP-specific CTL specific lysis of calcein-labeled EL4 cells, not NP pulsed; type: in vivo, C57BL/6 (B6) mice; settings: 3 hours
NP-pulsed EL4 cells = assay: NP-specific CTL specific lysis of calcein-labeled EL4 cells, NP pulsed; type: in vivo, C57BL/6 (B6) mice; settings: NP-pulsed EL4 cells (10 μg/mL NP), 3 hours

TRP-2: melanoma-specific antigen peptide, tyrosinase-related protein 2 181-188, Val Tyr Asp Phe Phe Val Trp Leu (VYDFFVWL; Tyrosinase-related protein 2 residues 181-188) [reference compound]
Ratio of TRP-2-specific CTLs [1]: 0.44
Ratio of TRP-2-specific CTLs [2]: 3.2

CCCC[C@H](C)C[C@H](O)/C=C/[C@H]1[C@H](O)CC(=O)[C@@H]1CC(=O)C1CCC(C(=O)O)CC1 (stereo partly drawn) [Compound A, (13E)-(11α,15S,17S)-2,5-Ethano-6,9-dioxo-11,15-dihydroxy-17,20-dimethylprosta-13-enoic acid]
Ratio of TRP-2-specific CTLs [1]: 0.53
Expression of each cell-surface molecule (%): I-A^b (I-A^b): 28.3%
Expression of each cell-surface molecule (%): B7-1 (B7-1 (CD80)): 8.8%
Expression of each cell-surface molecule (%): B7-2 (B7-2 (CD86)): 65.2%
Expression of each cell-surface molecule (%): CD40 (CD40): 30.8%
Expression of each cell-surface molecule (%): ICAM-1 (ICAM-1 (CD54)): 46.3%
Number of survivors (B16 melanoma cells; day 14 after inoculation of B16 melanoma cells): 8
Number of survivors (B16 melanoma cells; day 16 after inoculation of B16 melanoma cells): 8
Number of survivors (B16 melanoma cells; day 24 after inoculation of B16 melanoma cells): 8
Number of survivors (B16 melanoma cells; day 25 after inoculation of B16 melanoma cells): 8
Number of survivors (B16 melanoma cells; day 28 after inoculation of B16 melanoma cells): 8
Number of survivors (B16 melanoma cells; day 30 after inoculation of B16 melanoma cells): 8
Number of survivors (B16 melanoma cells; day 32 after inoculation of B16 melanoma cells): 8
Number of survivors (B16 melanoma cells; day 34 after inoculation of B16 melanoma cells): 8
Number of survivors (B16 melanoma cells; day 36 after inoculation of B16 melanoma cells): 4
Number of survivors (B16 melanoma cells; day 38 after inoculation of B16 melanoma cells): 0
Number of survivors (B16 melanoma cells; day 41 after inoculation of B16 melanoma cells): 0
Number of survivors (B16 melanoma cells; day 44 after inoculation of B16 melanoma cells): 0
Number of survivors (B16 melanoma cells; day 46 after inoculation of B16 melanoma cells): 0
Number of survivors (B16 melanoma cells; day 50 after inoculation of B16 melanoma cells): 0
Number of survivors (B16 melanoma cells; day 52 after inoculation of B16 melanoma cells): 0
Number of survivors (B16 melanoma cells; day 55 after inoculation of B16 melanoma cells): 0
Number of survivors (B16 melanoma cells; day 56 after inoculation of B16 melanoma cells): 0
Ratio of NK1.1+ cells (NK1.1+ cells): 3.6
Uptake of WST-1 (%) (splenic lymphocytes): 27.3%

NP: influenza virus-specific antigen peptide, nucleoprotein (NP) 366-374, Ala Ser Asn Glu Asn Met Glu Thr Met (ASNENMETM; UniProt P03466 366-374, looked up, fragment)
Specific lysis [3]: 1.2%
Specific lysis (NP-pulsed EL4 cells): 11.9%
